Experiment [1] deals with alpha 4 beta 7-positive cells. In words: Intraperitoneal Delayed Type Hypersensitivity (IP-DTH) Response. The experiment is classed as in vivo, mice. Conditions: peritoneal cells 48 h after antigen challenge; for inhibition in vivo at 30 mg/kg: Mus musculus, 48 h, read-out: % Decrease in recruited α4β7 + cells. The text has this:
Intraperitoneal Delayed Type Hypersensitivity (IP-DTH) Response. A Method for Analyzing Effects of Integrin Antagonists In Vivo
Integrin antagonists are meant to interfere with the binding or adhesion of immune cells, such as lymphocytes, monocytes and eosinophils that bear integrin receptors to counter-receptors that exist on endothelial cells in the vasculature. Among those integrin-bearing cells, cells that are positive for alpha 4 beta 7 integrin (found in the mesenteric system and in the gut), would comprise many of the cells recruited to a peritoneal antigen challenge. One can maximize the number of alpha 4 beta 7 integrin-positive cells recruited by inducing an intraperitoneal delayed type hypersensitivity response to antigen that will recruite antigen-responsive cells from the mesenteric lymph nodes. An inhibitor of alpha 4 beta 7 integrin should prevent the recruitment of these cells to the site of antigen challenge. Alpha 4 beta 7 integrin-positive cells are considered to be gut-homing, and are found in greater abundance in inflamed tissues of the GI tract and pancrea.
The antigenic challenge will induce a delayed type hypersensitivity response. In this model, animals were primed with antigen, then 7 days later were challenged intraperitoneally with the same antigen. During the ensuing 24-48 h, cells that were primed to recognize this antigen should be recruited to the challenge site. If the site is the peritoneal cavity, the recruited cells can be obtained by […] the cavity with a physiological buffer and collecting the lavage fluid.
The contribution of alpha 4 beta 7 integrin positive cells to the peritonal cavity cell population was ascertained by using flow cytometry to evaluate their relative percent in this population.
The mice were primed via intraperitoneal administration with 25 micrograms ovalbumin in a physiological buffer that may or may not contain alum as an adjuvant.
After 7 days, the mice were challenged with 25 micrograms ovalbumin via intraperitoneal administration.
Compounds were administered either orally (po), or subcutaneously (sc), either once daily or twice daily, for 2 days, starting on the day of antigen challenge.
Forty eight hours after antigen challenge, the elicited cells in the peritoneal cavity were harvested by lavaging the cavity in physiological saline or phosphate buffered saline, with calcium and magnesium salts.
The cells were washed into Staining Buffer consisting of phosphate buffered saline, 1% bovine serum albumin and 0.1% sodium azide, and resuspended to 2×10e7 cells/ml. A portion of 1×10e6 cells was deposited into a 96-well V-bottom plate for staining.
The sample of 1×10e6 cells was stained with fluorochrome-coupled antibody to alpha 4 beta 7 integrin or a primary antibody to alpha 4 beta 7 integrin followed by a secondary fluorochrome-coupled antibody. Each staining step was carried out at 4° C. for 30 to 45 min with gentle shaking, followed by 4 washes with Staining Buffer at 4° C. The cells were resuspended in 200 microliters of 1% paraformaldehyde in phosphate buffered saline. The cells were then transferred to test tubes and maintained at 4° C. until analyzed by flow cytometry to determine numbers of alpha4 beta7-postive cells.
A Becton-Dickenson FACSort (B-D instruments) was used for these studies.
Comparisons were made between numbers of alpha 4 beta 7-positive cells in samples taken from antigen-treated animals and numbers of alpha 4 beta 7-positive cells taken from antigen-treated animals administered experimental compounds.

The test system of experiment [2] is eosinophil peroxidase levels in ear punches. Put plainly: PMA-Induced Inflammation in Mouse Ear Skin and Measurement of Eosinophil Peroxidase. The experiment is classed as in vivo, BALB/C mice. Particulars: total dose 40 mg/kg po bid; ear punches 24 h after PMA. The method, then:
Phorbol 12-Myristate 13-Acetate (PMA)-Induced Inflammation in Mouse Ear Skin and Measurement of Eosinophil Peroxidase
Phorbol 12-myristate 13-acetate (PMA) when applied to skin, generates a vigorous recruitment of immune cells to the site of application. Over a 24 hour period, there is accumulation of fluid and cells to the inflamed site, and thus is a general indicator of an inflammatory response. Among the recruited cells are eosinophils and neutrophils. Eosinophils can migrate into an inflamed or infected tissue via alpha 4 beta 1 integrin interactions with vascular cell adesion molecule-1 (VCAM-1) counter-receptors on vascular endothelial cells, and via alpha 4 beta 7 integrin to mucosal addressin cellular adhesion molecule on vascular endothelial cells in the gastrointestinal tract and mesenteric system. The recruited esoinophils can be quantified by measuring the presence of eosinophil peroxidase in a sample of the homogenized tissue.
Female BALB/C mice are ordered at 6 weeks of age and 16-18 grams from Charles River were used between 6-10 weeks of age. The animals were randomly assigned to groups of 10 (5/box) and housed in groups in plastic cages in a room with 12 h light-dark cycle and controlled temperature and humidity. They received food and water ad libitum.
Phorbol 12-myristate 13-acetate (PMA) was dissolved as 5 mg per mL stock in dimethyl sulfoxide (DMSO) and stored frozen as 20 microliter aliquots. For application to mouse ears, each aliquot was diluted in 2 mL with acetone.
The right ear of each mouse was treated topically with 20 microliters of acetone solution (10 microliters to each side of the ear) containing either 1 microgram of phorbol 12-myristate 13-acetate (PMA) or acetone alone.
Drugs that were tested orally were administered at −1 and +3 hours relative to PMA application.
Mice were sacrificed 24 h after PMA application. The right ear was punched with a 6 mm tissue punch and the tissue was placed in a tube on dry ice and kept frozen until extraction.
One tablet of phosphate citrate buffer was dissolved with urea hydrogen peroxide in 100 ml of water in which one tablet containing 60 mg of o-phenylenediaminedihydrochloride was added.
Ear tissue samples were homogenized in 2 ml of HTAB for 15 sec at speed 5.5 with a Polytron (large head) (Brinkman Instruments). The homogenate was stored at −20° C. until assayed. […]
Samples were typically tested at either a 1:2 or 1:4 dilution made with HTAB. […] Absorbance was read at 490 nm for the specific with subtraction of a 650 nm noise signal using a Thermomax 96-well spectrophotmetric plate reader (Molecular Devices). […]
The inhibition of PMA-induced ear edema was measured by eosinophil peroxidase levels in ear punches. […]

Read-outs that look alike come from different tables or passages of the source.

Regarding `COc1cnn(CC(N)=O)c(=O)c1-c1ccc(C[C@H](NC(=O)c2c(Cl)cccc2Cl)C(=O)O)cc1` [Cpd 5], in experiment [1] (sc, 30 mg/kg sc bid × 2), the inhibition in vivo at 30 mg/kg worked out at 53.4%. Turning to `COc1cnn(CCN2CCOCC2)c(=O)c1-c1ccc(C[C@H](NC(=O)c2c(Cl)cccc2Cl)C(=O)O)cc1` [Cpd 10], the inhibition in vivo at 30 mg/kg in experiment [1] (sc, 30 mg/kg sc bid × 2) is 56.3%. For `COc1cnn(CC(=O)O)c(=O)c1-c1ccc(C[C@H](NC(=O)c2c(Cl)cccc2Cl)C(=O)O)cc1` [Cpd 11], the inhibition in vivo at 30 mg/kg in experiment [1] (sc, 30 mg/kg sc bid × 2) worked out at 70.5%. `COc1cnn(CCO)c(=O)c1-c1ccc(C[C@H](NC(=O)c2c(Cl)cccc2Cl)C(=O)O)cc1` [Cpd 15, (S)-2-(2,6-Dichloro-benzoylamino)-3{4-[2-(2-hydroxy-ethyl)-5-methoxy-3-oxo-2,3-dihydro-pyridazin-4-yl]-phenyl}-propionic acid]: the inhibition in vivo at 30 mg/kg in experiment [1] (sc, 30 mg/kg sc bid × 2) turned out to be 10.4%. `COc1cnn(C)c(=O)c1-c1ccc(C[C@H](NC(=O)c2c(Cl)cccc2Cl)C(=O)O)cc1` [Cpd 17]: the “% Inh. of Eosinophil Peroxidase” value in experiment [2] is 34.9%. In the case of `CNc1cnn(CC(C)=O)c(=O)c1-c1ccc(C[C@H](NC(=O)c2c(Cl)cccc2Cl)C(=O)O)cc1` [Cpd 18], the “% Decrease in recruited α4β7 + cells” value in experiment [1] (30 mg/kg sc bid × 2) is on record as 52.8%. Take `O=C(N[C@@H](Cc1ccc(-c2c(OCc3cccnc3)cnn(CCO)c2=O)cc1)C(=O)O)c1c(Cl)cccc1Cl` [Cpd 30]: in experiment [1] (sc, 30 mg/kg sc bid × 2), the inhibition in vivo at 30 mg/kg turned out to be 37.4%. On to `O=C(N[C@@H](Cc1ccc(-c2c(OCC3CC3)cnn(CCO)c2=O)cc1)C(=O)O)c1c(Cl)cccc1Cl` [Cpd 35], for which, in experiment [1] (sc, 30 mg/kg sc bid × 2), the inhibition in vivo at 30 mg/kg is 49.8%. Same read-out and setting: with `Cn1ncc(N)c(-c2ccc(C[C@H](NC(=O)c3c(Cl)cccc3Cl)C(=O)O)cc2)c1=O` [Cpd 46] the figure was 56.6%.

Turning to `O=C(N[C@@H](Cc1ccc(-c2c(N3CCOCC3)cnn(CCO)c2=O)cc1)C(=O)O)c1c(Cl)cccc1Cl` [Cpd 61], in experiment [1] (sc, 30 mg/kg sc bid × 2), the inhibition in vivo at 30 mg/kg was found to be 37.4%. On to `COc1cnn(C)c(=O)c1-c1ccc(C[C@H](NC(=O)[C@@H]2C3CCC(CC3)N2C(=O)CCc2ccccc2)C(=O)O)cc1` [Cpd 89, 3-[4-(5-Methoxy-2-methyl-3-oxo-2,3-dihydro-pyridazin-4-yl)-phenyl]-2(S)-{[2-(3-phenyl-propionyl)-2-aza-bicyclo[2.2.2]octane-3(S)-carbonyl]-amino}-propionic acid], for which the “% Inh. of Eosinophil Peroxidase” value in experiment [2] stood at 43.5%. As to `COc1cnn(CCO)c(=O)c1-c1ccc(C[C@H](NC(=O)OC(C)(C)C)C(=O)O)cc1` [Cpd 120], the inhibition in vivo at 30 mg/kg in experiment [1] (po, 30 mg/kg po bid × 2) was determined as 25.4%.

As for `COC(=O)[C@H](Cc1ccc(-c2c(OC)cnn(C)c2=O)cc1)NC(=O)c1c(Cl)cccc1Cl` [Cpd 151], in experiment [2], the “% Inh. of Eosinophil Peroxidase” value worked out at 26.5%. As for `COc1cnn(CCO)c(=O)c1-c1ccc(C[C@H](NC(=O)c2c(Cl)cccc2Cl)C(=O)OCCO)cc1` [Cpd 199], the “% Decrease in recruited α4β7 + cells” value in experiment [1] (30 mg/kg po bid × 2) stood at 16.04%.

Consider `COc1cnn(C)c(=O)c1-c1ccc(C[C@H](NC(=O)c2c(Cl)cccc2Cl)C(=O)OCC(C)(C)C)cc1` [Cpd 207], for which the inhibition in vivo at 30 mg/kg in experiment [1] (po, 30 mg/kg po bid × 2) stood at 25.6%. Same read-out and setting: with `Cn1ncc(N)c(-c2ccc(C[C@H](NC(=O)c3c(Cl)cccc3Cl)C(=O)OCCO)cc2)c1=O` [Cpd 232] the figure was 47.8%.
